Source: ChEMBL document CHEMBL4813981, “Synthesis and in vitro antibacterial activity of new aminothiazole-oximepiperidone cephalosporins” (2021)
In brackets after ≈: the same amount, converted by molar mass.

Legend:
Assay type in all cases: functional
Acinetobacter baumannii [1] = experiment: Antibacterial activity against Carbapenem- resistant Acinetobacter baumannii 17-12 assessed as reduction in bacterial growth
Acinetobacter baumannii [2] = experiment: Antibacterial activity against Carbapenem- resistant Acinetobacter baumannii 17-9 assessed as reduction in bacterial growth
Klebsiella pneumoniae [3] = experiment: Antibacterial activity against Carbapenem- resistant Klebsiella pneumoniae KR 15-4 assessed as reduction in bacterial growth
Klebsiella pneumoniae [4] = experiment: Antibacterial activity against Carbapenem- sensitive Klebsiella pneumoniae 17-10 overexpressing extended spectrum beta-lactamases assessed as reduction in bacterial growth
Klebsiella pneumoniae [5] = experiment: Bactericidal activity against ESBLs negative Carbapenem-sensitive Klebsiella pneumoniae 17-16 assessed as reduction in bacterial growth in the presence of avibactam
Pseudomonas aeruginosa [6] = experiment: Bactericidal activity against carbapenem-sensitive Pseudomonas aeruginosa 17-7 assessed as reduction in bacterial growth
Escherichia coli [7] = experiment: Antibacterial activity against ESBLs negative Carbapenem-sensitive Escherichia coli 17-16 assessed as reduction in bacterial growth
Escherichia coli [8] = experiment: Antibacterial activity against ESBLs negative Carbapenem-sensitive Escherichia coli 17-7 assessed as reduction in bacterial growth in the presence of Avibactam
Klebsiella aerogenes [9] = experiment: Antibacterial activity against Enterobacter aerogenes 17-1 assessed as reduction in bacterial growth in the presence of Avibactam
Enterobacter cloacae [10] = experiment: Bactericidal activity against Enterobacter cloacae 17-10 assessed as reduction in bacterial growth in the presence of avibactam
Enterobacter cloacae [11] = experiment: Antibacterial activity against Enterobacter cloacae 17-7 assessed as reduction in bacterial growth
Klebsiella aerogenes [12] = experiment: Antibacterial activity against Enterobacter aerogenes 15-5 assessed as reduction in bacterial growth
Escherichia coli [13] = experiment: Bactericidal activity against ESBLs positive carbapenem-sensitive Escherichia coli 17-3 assessed as reduction in bacterial growth in the presence of avibactam
Escherichia coli [14] = experiment: Bactericidal activity against ESBLs positive Carbapenem-sensitive Escherichia coli 17-18 assessed as reduction in bacterial growth
Acinetobacter baumannii [15] = experiment: Antibacterial activity against Carbapenem- resistant Acinetobacter baumannii 17-6 assessed as reduction in bacterial growth
Klebsiella pneumoniae [16] = experiment: Antibacterial activity against Carbapenem- resistant Klebsiella pneumoniae KR 15-9 assessed as reduction in bacterial growth
Acinetobacter baumannii [17] = experiment: Antibacterial activity against Acinetobacter baumannii NCTC 13304 assessed as reduction in bacterial growth
Escherichia coli [18] = experiment: Antibacterial activity against ESBLs positive Carbapenem-sensitive Escherichia coli 17-5 assessed as reduction in bacterial growth
Klebsiella pneumoniae [19] = experiment: Antibacterial activity against Carbapenem- resistant Klebsiella pneumoniae KR 15-11 assessed as reduction in bacterial growth in the presence of Avibactam
Klebsiella pneumoniae [20] = experiment: Antibacterial activity against Carbapenem- resistant Klebsiella pneumoniae KR 15-11 assessed as reduction in bacterial growth
Enterobacter cloacae [21] = experiment: Bactericidal activity against Enterobacter cloacae 17-3 assessed as reduction in bacterial growth in the presence of avibactam
Escherichia coli [22] = experiment: Antibacterial activity against ESBLs positive Carbapenem-sensitive Escherichia coli 17-15 assessed as reduction in bacterial growth
Klebsiella pneumoniae [23] = experiment: Antibacterial activity against Carbapenem- sensitive Klebsiella pneumoniae 17-11 overexpressing extended spectrum beta-lactamases assessed as reduction in bacterial growth
Acinetobacter baumannii [24] = experiment: Antibacterial activity against Carbapenem- resistant Acinetobacter baumannii 17-5 assessed as reduction in bacterial growth
Acinetobacter baumannii [25] = experiment: Antibacterial activity against Carbapenem- resistant Acinetobacter baumannii 17-5 assessed as reduction in bacterial growth in the presence of Avibactam
Acinetobacter baumannii [26] = experiment: Antibacterial activity against Carbapenem- resistant Acinetobacter baumannii 17-2 assessed as reduction in bacterial growth
Acinetobacter baumannii [27] = experiment: Antibacterial activity against Carbapenem- resistant Acinetobacter baumannii 17-8 assessed as reduction in bacterial growth
Klebsiella pneumoniae [28] = experiment: Antibacterial activity against ESBLs positive Carbapenem-sensitive Klebsiella pneumoniae 17-7 assessed as reduction in bacterial growth in the presence of Avibactam
Pseudomonas aeruginosa [29] = experiment: Antibacterial activity against Carbapenem- sensitive Pseudomonas aeruginosa 17-29 assessed as reduction in bacterial growth
Klebsiella pneumoniae [30] = experiment: Antibacterial activity against Carbapenem- sensitive Klebsiella pneumoniae 17-7 overexpressing extended spectrum beta-lactamases assessed as reduction in bacterial growth
Klebsiella pneumoniae [31] = experiment: Antibacterial activity against Multidrug resistant Klebsiella pneumoniae KR 15-2 assessed as reduction in bacterial growth
Klebsiella aerogenes [32] = experiment: Antibacterial activity against Enterobacter aerogenes 17-2 assessed as reduction in bacterial growth
Enterobacter cloacae [33] = experiment: Antibacterial activity against Enterobacter cloacae 17-1 assessed as reduction in bacterial growth
Klebsiella pneumoniae [34] = experiment: Antibacterial activity against Carbapenem- resistant Klebsiella pneumoniae KR 15-5 assessed as reduction in bacterial growth
Klebsiella pneumoniae [35] = experiment: Antibacterial activity against Carbapenem- sensitive Klebsiella pneumoniae 17-1 overexpressing extended spectrum beta-lactamases assessed as reduction in bacterial growth
Enterobacter cloacae [36] = experiment: Antibacterial activity against Enterobacter cloacae 17-3 assessed as reduction in bacterial growth
Klebsiella pneumoniae [37] = experiment: Antibacterial activity against ESBLs negative Carbapenem-sensitive Klebsiella pneumoniae 17-16 assessed as reduction in bacterial growth
Escherichia coli [38] = experiment: Antibacterial activity against ESBLs positive Carbapenem-sensitive Escherichia coli 17-22 assessed as reduction in bacterial growth
Enterobacter cloacae [39] = experiment: Antibacterial activity against Enterobacter cloacae 17-2 assessed as reduction in bacterial growth
Klebsiella pneumoniae [40] = experiment: Antibacterial activity against Carbapenem- sensitive Klebsiella pneumoniae 17-13 overexpressing extended spectrum beta-lactamases assessed as reduction in bacterial growth
Escherichia coli [41] = experiment: Antibacterial activity against ESBLs positive Carbapenem-sensitive Escherichia coli 17-12 assessed as reduction in bacterial growth
Pseudomonas aeruginosa [42] = experiment: Antibacterial activity against Carbapenem- sensitive Pseudomonas aeruginosa 17-22 assessed as reduction in bacterial growth
Escherichia coli [43] = experiment: Antibacterial activity against ESBLs positive Carbapenem-sensitive Escherichia coli 17-3 assessed as reduction in bacterial growth
Enterobacter cloacae [44] = experiment: Antibacterial activity against Enterobacter cloacae 17-9 assessed as reduction in bacterial growth
Acinetobacter baumannii [45] = experiment: Antibacterial activity against Carbapenem- resistant Acinetobacter baumannii 17-3 assessed as reduction in bacterial growth
Klebsiella pneumoniae [46] = experiment: Antibacterial activity against Carbapenem- sensitive Klebsiella pneumoniae 17-3 overexpressing extended spectrum beta-lactamases assessed as reduction in bacterial growth
Escherichia coli [47] = experiment: Antibacterial activity against ESBLs positive Carbapenem-sensitive Escherichia coli 17-21 assessed as reduction in bacterial growth
Klebsiella pneumoniae [48] = experiment: Antibacterial activity against Carbapenem- sensitive Klebsiella pneumoniae 17-5 overexpressing extended spectrum beta-lactamases assessed as reduction in bacterial growth
Klebsiella pneumoniae [49] = experiment: Antibacterial activity against Carbapenem- resistant Klebsiella pneumoniae KR 15-8 assessed as reduction in bacterial growth
Klebsiella pneumoniae [50] = experiment: Antibacterial activity against ESBLs positive Carbapenem-sensitive Klebsiella pneumoniae 17-6 assessed as reduction in bacterial growth in the presence of Avibactam
Escherichia coli [51] = experiment: Antibacterial activity against ESBLs negative Carbapenem-sensitive Escherichia coli 17-20 assessed as reduction in bacterial growth
Pseudomonas aeruginosa [52] = experiment: Antibacterial activity against Carbapenem- sensitive Pseudomonas aeruginosa 17-11 assessed as reduction in bacterial growth

In the case of `CC(C)(O/N=C(\C(=O)N[C@@H]1C(=O)N2C(C(=O)[O-])=C(C[n+]3ccccc3)CS[C@H]12)c1csc(N)n1)C(=O)O` [CEFTAZIDIME], the MIC (Acinetobacter baumannii [1]) was 64 µg/mL (≈ 117 µM), the MIC (Acinetobacter baumannii [2]) was > 64 µg/mL and the MIC (Klebsiella pneumoniae [3]) was > 64 µg/mL. It also gave an MIC (Klebsiella pneumoniae [4]) of 16 µg/mL (≈ 29.3 µM), an MBC (Klebsiella pneumoniae [5]) of 0.25 µg/mL and an MBC (Pseudomonas aeruginosa [6]) of 1 µg/mL (≈ 1.83 µM). It also gave an MIC (Escherichia coli [7]) of 0.5 µg/mL (≈ 0.915 µM), an MIC (Escherichia coli [8]) of 0.125 µg/mL and an MIC (Klebsiella aerogenes [9]) of 1 µg/mL. The MBC (Enterobacter cloacae [10]) was 1 µg/mL, the MIC (Enterobacter cloacae [11]) was > 64 µg/mL and the MIC (Klebsiella aerogenes [12]) was 16 µg/mL (≈ 29.3 µM). For the same compound, the MBC (Escherichia coli [13]) was 0.25 µg/mL, the MBC (Escherichia coli [14]) was 2 µg/mL (≈ 3.66 µM) and the MIC (Acinetobacter baumannii [15]) was > 64 µg/mL. For the same compound, the MIC (Klebsiella pneumoniae [16]) was 64 µg/mL (≈ 117 µM), the MIC (Acinetobacter baumannii [17]) was 64 µg/mL (≈ 117 µM) and the MIC (Escherichia coli [18]) was 4 µg/mL (≈ 7.32 µM). For the same compound, the MIC (Klebsiella pneumoniae [19]) was 2 µg/mL, the MIC (Klebsiella pneumoniae [20]) was > 64 µg/mL and the MBC (Enterobacter cloacae [21]) was 0.25 µg/mL. The MIC (Escherichia coli [22]) was 64 µg/mL (≈ 117 µM), the MIC (Klebsiella pneumoniae [23]) was 8 µg/mL (≈ 14.6 µM) and the MIC (Acinetobacter baumannii [24]) was > 64 µg/mL. For the same compound, the MIC (Acinetobacter baumannii [25]) was 8 µg/mL, the MIC (Acinetobacter baumannii [26]) was > 64 µg/mL and the MIC (Acinetobacter baumannii [27]) was > 64 µg/mL. The MIC (Klebsiella pneumoniae [28]) was 4 µg/mL, the MIC (Pseudomonas aeruginosa [29]) was 1 µg/mL (≈ 1.83 µM) and the MIC (Klebsiella pneumoniae [30]) was > 64 µg/mL. The MIC (Klebsiella pneumoniae [31]) was > 64 µg/mL, the MIC (Klebsiella aerogenes [32]) was 16 µg/mL (≈ 29.3 µM) and the MIC (Enterobacter cloacae [33]) was 0.5 µg/mL (≈ 0.915 µM). For the same compound, the MIC (Klebsiella pneumoniae [34]) was > 64 µg/mL, the MIC (Klebsiella pneumoniae [35]) was 64 µg/mL (≈ 117 µM) and the MIC (Enterobacter cloacae [36]) was 1 µg/mL (≈ 1.83 µM). For the same compound, the MIC (Klebsiella pneumoniae [37]) was 2 µg/mL (≈ 3.66 µM), the MIC (Escherichia coli [38]) was > 64 µg/mL and the MIC (Enterobacter cloacae [39]) was 64 µg/mL (≈ 117 µM). It also gave an MIC (Klebsiella pneumoniae [40]) of 4 µg/mL (≈ 7.32 µM), an MIC (Escherichia coli [41]) of 8 µg/mL (≈ 14.6 µM) and an MIC (Pseudomonas aeruginosa [42]) of 0.5 µg/mL (≈ 0.915 µM). For the same compound, the MIC (Escherichia coli [43]) was 2 µg/mL (≈ 3.66 µM), the MIC (Enterobacter cloacae [44]) was 0.5 µg/mL (≈ 0.915 µM) and the MIC (Acinetobacter baumannii [45]) was > 64 µg/mL. For the same compound, the MIC (Klebsiella pneumoniae [46]) was > 64 µg/mL, the MIC (Escherichia coli [47]) was 8 µg/mL (≈ 14.6 µM) and the MIC (Klebsiella pneumoniae [48]) was 1 µg/mL (≈ 1.83 µM). For the same compound, the MIC (Klebsiella pneumoniae [49]) was > 64 µg/mL and the MIC (Klebsiella pneumoniae [50]) was 0.5 µg/mL.

For `C[C@@H](O)[C@H]1C(=O)N2C(C(=O)O)=C(S[C@@H]3CN[C@H](C(=O)N(C)C)C3)[C@H](C)[C@H]12` [MEROPENEM], the MIC (Acinetobacter baumannii [1]) was 16 µg/mL (≈ 41.7 µM), the MIC (Acinetobacter baumannii [2]) was 32 µg/mL (≈ 83.4 µM) and the MIC (Klebsiella pneumoniae [3]) was > 64 µg/mL. The MIC (Klebsiella pneumoniae [4]) was < 0.03 µg/mL, the MIC (Escherichia coli [7]) was < 0.03 µg/mL and the MIC (Enterobacter cloacae [11]) was 0.25 µg/mL (≈ 0.652 µM). The MIC (Klebsiella aerogenes [12]) was 0.125 µg/mL (≈ 0.326 µM), the MIC (Acinetobacter baumannii [15]) was 32 µg/mL (≈ 83.4 µM) and the MIC (Klebsiella pneumoniae [16]) was > 64 µg/mL. The MIC (Acinetobacter baumannii [17]) was 16 µg/mL (≈ 41.7 µM), the MIC (Escherichia coli [18]) was < 0.03 µg/mL and the MIC (Klebsiella pneumoniae [20]) was 32 µg/mL (≈ 83.4 µM). For the same compound, the MIC (Escherichia coli [51]) was < 0.03 µg/mL, the MIC (Pseudomonas aeruginosa [52]) was 2 µg/mL (≈ 5.22 µM) and the MIC (Escherichia coli [22]) was < 0.03 µg/mL. For the same compound, the MIC (Klebsiella pneumoniae [23]) was 0.06 µg/mL (≈ 0.156 µM), the MIC (Acinetobacter baumannii [24]) was 64 µg/mL (≈ 167 µM) and the MIC (Acinetobacter baumannii [26]) was 64 µg/mL (≈ 167 µM). For the same compound, the MIC (Acinetobacter baumannii [27]) was 32 µg/mL (≈ 83.4 µM), the MIC (Pseudomonas aeruginosa [29]) was 1 µg/mL (≈ 2.61 µM) and the MIC (Klebsiella pneumoniae [30]) was 0.06 µg/mL (≈ 0.156 µM). The MIC (Klebsiella aerogenes [32]) was 0.06 µg/mL (≈ 0.156 µM), the MIC (Enterobacter cloacae [33]) was < 0.03 µg/mL and the MIC (Klebsiella pneumoniae [34]) was > 64 µg/mL. For the same compound, the MIC (Klebsiella pneumoniae [35]) was 0.06 µg/mL (≈ 0.156 µM), the MIC (Enterobacter cloacae [36]) was 0.06 µg/mL (≈ 0.156 µM) and the MIC (Klebsiella pneumoniae [37]) was < 0.03 µg/mL. For the same compound, the MIC (Escherichia coli [38]) was 0.06 µg/mL (≈ 0.156 µM), the MIC (Enterobacter cloacae [39]) was 0.125 µg/mL (≈ 0.326 µM) and the MIC (Klebsiella pneumoniae [40]) was < 0.03 µg/mL. For the same compound, the MIC (Escherichia coli [41]) was < 0.03 µg/mL, the MIC (Pseudomonas aeruginosa [42]) was 1 µg/mL (≈ 2.61 µM) and the MIC (Escherichia coli [43]) was < 0.03 µg/mL. For the same compound, the MIC (Enterobacter cloacae [44]) was < 0.03 µg/mL, the MIC (Acinetobacter baumannii [45]) was 16 µg/mL (≈ 41.7 µM) and the MIC (Klebsiella pneumoniae [46]) was < 0.03 µg/mL. The MIC (Escherichia coli [47]) was < 0.03 µg/mL, the MIC (Klebsiella pneumoniae [48]) was < 0.03 µg/mL and the MIC (Klebsiella pneumoniae [49]) was > 64 µg/mL.
